# Assay results from patent publication US6989389B2, “Aryl ether substituted imidazoquinolines” (3M Innovative Properties Co., priority 2000, dated 2006).
# Like-named read-outs stand apart in the source and are kept apart here.
# Legend:
# [1] = system: Peripheral blood mononuclear cells (PBMC); assay: Cytokine Induction in Human Cells (in vitro human blood cell system, IFN and TNF secreted into culture media); assay type: cell-based; design: key to Lowest Effective Concentration (μM) Tumor Necrosis Factor / Lowest Effective Concentration (μM) Interferon: *: no induction was seen at any of the tested concentrations; conditions: 18 to 24 hours, tested 30-0.014 μM
# In short: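 Human donor PBMC (2×10^6 cells/mL, RPMI complete) incubated 18–24 h at 37 °C, 5% CO2 with compound, 3-fold dilutions 30–0.014 μM, ≤1% DMSO. IFN-α measured by ELISA, TNF-α by ELISA or IGEN immunoassay in supernatants (pg/mL). Value is lowest concentration inducing each cytokine.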
# [2] = Homo sapiens, PBMC, lowest concentration found to induce interferon (α), ELISA, read-out: Lowest Effective Concentration (μM) Interferon
# [3] = lowest concentration found to induce tumor necrosis factor (α), ELISA or IGEN assay
# [4] = lowest concentration found to induce interferon (α), ELISA
# [5] = Homo sapiens, PBMC, lowest concentration found to induce tumor necrosis factor (α), ELISA or IGEN assay, read-out: Lowest Effective Concentration (μM) Tumor Necrosis Factor
melting point,Structure (SMILES),"minimal effective concentration [1, 2]","Lowest Effective Concentration (μM) Tumor Necrosis Factor [1, 3]","Lowest Effective Concentration (μM) Interferon [1, 4]","minimal effective concentration ([1]; lowest concentration found to induce interferon (α), ELISA, read-out: Lowest Effective Concentration (μM) Interferon)","minimal effective concentration ([1]; lowest concentration found to induce tumor necrosis factor (α), ELISA or IGEN assay, read-out: Lowest Effective Concentration (μM) Tumor Necrosis Factor)","minimal effective concentration [1, 5]"
235.9 to 236.3 °C,"Nc1nc2ccccc2c2c1nc(C1CCOC1)n2CCOc1ccccc1 (stereo not drawn) [Example 139, 1-(2-Phenoxyethyl)-2-tetrahydrofuran-3-yl-1H-imidazo[4,5-c]quinolin-4-amine]",,*,*,,,
160 to 161.6 °C,"Cc1nc2c(N)nc3ccccc3c2n1CCCOCC#Cc1ccccc1 [Example 147, 2-Methyl-1-{3-[(3-phenylprop-2-ynyl)oxy]propyl}-H-imidazo[4,5-c]quinolin-4-amine]",0.37 µM,,,,,0.37 µM
145 to 146.1 °C,"Cc1nc2c(N)nc3ccccc3c2n1CCCOCCCc1ccccc1 [Example 148, 2-Methyl-1-[3-(3-phenylpropoxy)propyl]-1H-imidazo[4,5-c]quinolin-4-amine]",1.11 µM,,,,,1.11 µM
109.2 to 110 °C,"Cc1nc2c(N)nc3ccccc3c2n1CCCCOCC#Cc1ccccc1 [Example 149, 2-Methyl-1-{4-[(3-phenylprop-2-ynyl)oxy]butyl}-1H-imidazo[4,5-c]quinolin-4-amine]",0.041 µM,,,,,0.37 µM
105.1 to 106 °C,"Cc1nc2c(N)nc3ccccc3c2n1CCCCOCCCc1ccccc1 [Example 150, 2-Methyl-1 [4-(3-phenylpropoxy)butyl]-1H-imidazo[4,5-c]quinolin-4-amine]",0.37 µM,,,,,1.11 µM

# Further lines, the molecule ahead of its results:
Structure (SMILES),melting point,"minimal effective concentration [1, 2]","Lowest Effective Concentration (μM) Tumor Necrosis Factor [1, 3]","Lowest Effective Concentration (μM) Interferon [1, 4]","minimal effective concentration ([1]; lowest concentration found to induce interferon (α), ELISA, read-out: Lowest Effective Concentration (μM) Interferon)","minimal effective concentration ([1]; lowest concentration found to induce tumor necrosis factor (α), ELISA or IGEN assay, read-out: Lowest Effective Concentration (μM) Tumor Necrosis Factor)","minimal effective concentration [1, 5]"
"Nc1nc2ccccc2c2c1nc(COc1ccccc1)n2CCOc1ccccc1 [Example 133, 1-(2-Phenoxyethyl)-2-(phenoxymethyl)-1H-imidazo[4,5-c]quinolin-4-amine]",168.5 to 170 °C,3.33 µM,*,,,,
"COc1ccc(Cc2nc3c(N)nc4ccccc4c3n2CCOc2ccccc2)cc1 [Example 134, 2-(4-Methoxybenzyl)-1-(2-phenoxyethyl)-1H-imidazo[4,5-c]quinolin-4-amine]",201 to 203.6 °C,,*,*,,,
"Nc1nc2ccccc2c2c1nc(C1CCCC1)n2CCOc1ccccc1 [Example 135, 2-Cyclopentyl-1-(2-phenoxyethyl)-1H-imidazo[4,5-c]quinolin-4-amine]",216 to 217.9 °C,,*,*,,,
"Nc1nc2ccccc2c2c1nc(CCC1CCCC1)n2CCOc1ccccc1 [Example 138, 2-(2-Cyclopentylethyl)-1-(2-phenoxyethyl)-1H-imidazo[4,5-c]quinolin-4-amine]",165 °C,1.11 µM,*,,,,
"Nc1nc2ccccc2c2c1nc(-c1ccccc1)n2CCOc1ccccc1 [Example 140, 1-(2-Phenoxyethyl)-2-phenyl-1H-imidazo[4,5-c]quinolin-4-amine]",182.5 to 184.6 °C,,*,*,,,
"CCC(COCc1ccc(C#N)cc1)n1cnc2c(N)nc3ccccc3c21 (stereo not drawn) [Example 141, 4-{[2-(4-Amino-1H-imidazo[4,5-c]quinolin-1-yl)butoxy]methyl}benzonitrile]",160 to 161 °C,,,,0.12 µM,0.12 µM,
